According to patent US11058680B2, “Combinations of opioid/TLR4 antagonists and acetaminophen for use in the treatment of emotional pain and insomnia” (Allodynic Threapeutics, LLC, priority 2016, dated 2021):

Columns and labels:
insomnia = assay: Migraine open-label pilot study: insomnia on 4-point scale, night before vs. night after dosing (insomnia-free, insomnia intensity); type: in vivo, human; settings: for Change in insomnia-free / Change in insomnia-intensity: baseline to night after dosing; for Insomnia-intensity at baseline / Insomnia-intensity at night after dosing: sum of severity of all patients
Description: Sixteen unique patients were enrolled in an open phase pilot study for the acute treatment of migraine attacks, insomnia, and emotional pain. Of the sixteen patients, eleven were evaluated for one migraine attack, one for two attacks, two for four attacks, one for six attacks, and one for fourteen attacks. A total of forty-one […] treatments were evaluated. Patients received a single dose of one of the following treatment options:
(§1) The majority of the patients remained in the clinic for observation for 2 hours after dosing. They completed headache diary assessments immediately before and after dosing at time points: 7, 15, and 30 minutes; and 1, 1.5, 2, 3, 6, 12, 24, and 48 hours. Headache pain was assessed on a 4-point scale (0=none; 1=mild; 2=moderate; 3=severe). The assessment of photophobia, phonophobia, nausea, and neck/shoulder pain was assessed as present or absent. The assessment of emotional pain was recorded on a 4-point scale (0=none, 1=mild, 2=moderate, 3=severe). The assessment of difficulty sleeping or falling asleep (insomnia) was assessed on a 4-point scale (0=none, 1=mild, 2=moderate, 3=severe) at baseline, for the night before treatment and for the following nights at 24, and 48 hours. Patients recorded side effects severity at each time point. Patients recorded the time of the first rescue medication dose and all additional headache medications used within 48 hours. Patients were required to stay awake to record their assessments in the first 2 hours, sleeping was permitted thereafter. While asleep, assessments were completed according to patients' best estimation. For data analysis, it was assumed that a migraine attack is a unique patient. Patients were asked to specify (yes or no answer) to whether they experienced emotional pain symptoms such as: hurt feelings, sadness, fear, or anger. Patients who replied positively to having emotional pain were asked to specify the cause into one of the following options: relationship, work/school, money/debt, health, or loss/grief.

[1] = Migraine open-label pilot study: side effects (AEs present) at each time point; type: in vivo, human
Description: as §1, with “They completed headache diary assessments immediately before and after dosing at time points: 7, 15, and 30 minutes; and 1, 1.5, 2, 3, 6, 12, 24, and 48 hours.” left out

[2] = 48 h, NTX/APAP 2.25 mg/325 mg, NTX 2.25 mg
[3] = 48 h, NTX/APAP 5 mg/325 mg, NTX 5 mg
[4] = NTX/APAP 2.25 mg/325 mg, NTX 2.25 mg
[5] = NTX/APAP 3.25 mg/325 mg, NTX 3.25 mg
[6] = night after dosing, NTX/APAP 2.25 mg/325 mg, NTX 2.25 mg
[7] = night after dosing, NTX/APAP 3.25 mg/325 mg, NTX 3.25 mg
[8] = night after dosing, NTX/APAP 5 mg/325 mg, NTX 5 mg
[9] = night after dosing, NTX/APAP […]325 mg, NTX 1.5 mg
[10] = night after dosing, naltrexone/acetaminophen 2.25 mg/325 mg (N=21), naltrexone 2.25 mg (N=9)

O=C1CC[C@@]2(O)[C@H]3Cc4ccc(O)c5c4[C@@]2(CCN3CC2CC2)[C@H]1O5 [naltrexone]
Insomnia-free (insomnia; 24 h, combined doses): 11 (69) n (%) | Insomnia-free (insomnia; 24 h time point = night following the day of initial dosing, NTX/APAP 2.25 mg/325 mg, NTX 2.25 mg): 6 (66) n (%) | Insomnia-free (insomnia; 24 h time point = night following the day of initial dosing, NTX/APAP 3.25 mg/325 mg, NTX 3.25 mg): 2 (66) n (%) | Insomnia-free (insomnia; 24 h time point = night following the day of initial dosing, NTX/APAP 5 mg/325 mg, NTX 5 mg): 1 (100) n (%) | Insomnia-free (insomnia; 24 h time point = night following the day of initial dosing, NTX/APAP […]325 mg, NTX 1.5 mg): 2 (66) n (%) | Insomnia-free (insomnia; [2]): 8 (88) n (%) | Insomnia-free (insomnia; [3]): 1 (100) n (%) | Insomnia-free (insomnia; 48 h, combined doses): 2 (13) n (%) | Change in insomnia-free (insomnia; [4]): +2 (22) n (%) | Change in insomnia-intensity (insomnia; [4]): −10 (−111) n (%) | Change in insomnia-free (insomnia; [5]): +1 n (%) | Change in insomnia-intensity (insomnia; [5]): −1 (−50) n (%) | Change in insomnia-free (insomnia; NTX/APAP 5 mg/325 mg, NTX 5 mg): 0 n (%) | Change in insomnia-intensity (insomnia; NTX/APAP 5 mg/325 mg, NTX 5 mg): +2 (+200) n (%) | Change in insomnia-free (insomnia; NTX/APAP […]325 mg, NTX 1.5 mg): 0 n (%) | Change in insomnia-intensity (insomnia; NTX/APAP […]325 mg, NTX 1.5 mg): −2 (−66) n (%) | Insomnia-free at baseline (insomnia; [4]): 4 (44) n (%) | Insomnia-free at baseline (insomnia; [5]): 1 n (%) | Insomnia-free at baseline (insomnia; NTX/APAP 5 mg/325 mg, NTX 5 mg): 0 n (%) | Insomnia-free at baseline (insomnia; NTX/APAP […]325 mg, NTX 1.5 mg): 2 n (%) | Insomnia-free at night after dosing (insomnia; [6]): 6 (66) n (%) | Insomnia-free at night after dosing (insomnia; [7]): 2 (66) n (%) | Insomnia-free at night after dosing (insomnia; [8]): 0 n (%) | Insomnia-free at night after dosing (insomnia; [9]): 2 n (%) | insomnia intensity change from baseline (insomnia; [10]): −111% | insomnia-free change from baseline (insomnia; [10]): 22% | insomnia intensity improved by (insomnia; night before vs. night after treatment, naltrexone 2.25 mg (n=9)): 111% | Insomnia-intensity at baseline (insomnia; [4]): 14 (155) n (%) | Insomnia-intensity at baseline (insomnia; [5]): 2 n (%) | Insomnia-intensity at baseline (insomnia; NTX/APAP 5 mg/325 mg, NTX 5 mg): 1 n (%) | Insomnia-intensity at baseline (insomnia; NTX/APAP […]325 mg, NTX 1.5 mg): 3 n (%) | Insomnia-intensity at night after dosing (insomnia; [6]): 4 (44) n (%) | Insomnia-intensity at night after dosing (insomnia; [7]): 1 n (%) | Insomnia-intensity at night after dosing (insomnia; [8]): 3 n (%) | Insomnia-intensity at night after dosing (insomnia; [9]): 1 n (%) | AEs present ([1]; 7 min, NTX/APAP 2.25 mg/325 mg, NTX 2.25 mg): 0 (0) | AEs present ([1]; 7 min, NTX/APAP 3.25 mg/325 mg, NTX 3.25 mg): 0 | AEs present ([1]; 7 min, NTX/APAP 5 mg/325 mg, NTX 5 mg): 1 | AEs present ([1]; 7 min, all doses combined): 1 (16) | AEs present ([1]; 15 min, NTX/APAP 2.25 mg/325 mg, NTX 2.25 mg): 1 (11) | AEs present ([1]; 15 min, NTX/APAP 3.25 mg/325 mg, NTX 3.25 mg): 0 | AEs present ([1]; 15 min, NTX/APAP 5 mg/325 mg, NTX 5 mg): 0 | AEs present ([1]; 15 min, NTX/APAP […]325 mg, NTX 1.5 mg): 0 | AEs present ([1]; 15 min, all doses combined): 2 (13) | AEs present ([1]; 30 min, NTX/APAP 2.25 mg/325 mg, NTX 2.25 mg): 1 (11) | AEs present ([1]; 30 min, NTX/APAP 3.25 mg/325 mg, NTX 3.25 mg): 2 (66) | AEs present ([1]; 30 min, NTX/APAP 5 mg/325 mg, NTX 5 mg): 1 (100) | AEs present ([1]; 30 min, NTX/APAP […]325 mg, NTX 1.5 mg): 0 (0) | AEs present ([1]; 30 min, all doses combined): 4 (25) | AEs present ([1]; 1 h, NTX/APAP 2.25 mg/325 mg, NTX 2.25 mg): 1 (11) | AEs present ([1]; 1 h, NTX/APAP 3.25 mg/325 mg, NTX 3.25 mg): 1 | AEs present ([1]; 1 h, NTX/APAP 5 mg/325 mg, NTX 5 mg): 1 | AEs present ([1]; 1 h, NTX/APAP […]325 mg, NTX 1.5 mg): 0 | AEs present ([1]; 1 h, all doses combined): 3 (19) | AEs present ([1]; 90 min, NTX/APAP 2.25 mg/325 mg, NTX 2.25 mg): 0 (0) | AEs present ([1]; 90 min, NTX/APAP 3.25 mg/325 mg, NTX 3.25 mg): 1 (33) | AEs present ([1]; 90 min, NTX/APAP 5 mg/325 mg, NTX 5 mg): 1 (100) | AEs present ([1]; 90 min, NTX/APAP […]325 mg, NTX 1.5 mg): 0 (0) | AEs present ([1]; 90 min, all doses combined): 2 (13) | AEs present ([1]; 2 h, NTX/APAP 2.25 mg/325 mg, NTX 2.25 mg): 0 (0) | AEs present ([1]; 2 h, NTX/APAP 3.25 mg/325 mg, NTX 3.25 mg): 1 (33) | AEs present ([1]; 2 h, NTX/APAP 5 mg/325 mg, NTX 5 mg): 1 | AEs present ([1]; 2 h, NTX/APAP […]325 mg, NTX 1.5 mg): 0 (0) | AEs present ([1]; 2 h, combined doses): 2 (13) | AEs present ([1]; 3 h, NTX/APAP 2.25 mg/325 mg, NTX 2.25 mg): 0 (0) | AEs present ([1]; 3 h, NTX/APAP 3.25 mg/325 mg, NTX 3.25 mg): 1 (33) | AEs present ([1]; 3 h, NTX/APAP 5 mg/325 mg, NTX 5 mg): 1 | AEs present ([1]; 3 h, NTX/APAP […]325 mg, NTX 1.5 mg): 0 | AEs present ([1]; 3 h, combined doses): 2 (13) | AEs present ([1]; 4 h, NTX/APAP 2.25 mg/325 mg, NTX 2.25 mg): 0 (0) | AEs present ([1]; 4 h, NTX/APAP 3.25 mg/325 mg, NTX 3.25 mg): 1 (33) | AEs present ([1]; 4 h, NTX/APAP 5 mg/325 mg, NTX 5 mg): 1 | AEs present ([1]; 4 h, NTX/APAP […]325 mg, NTX 1.5 mg): 0 | AEs present ([1]; 4 h, combined doses): 2 (13) | AEs present ([1]; 6 h, NTX/APAP 2.25 mg/325 mg, NTX 2.25 mg): 0 (0) | AEs present ([1]; 6 h, NTX/APAP 3.25 mg/325 mg, NTX 3.25 mg): 1 (33) | AEs present ([1]; 6 h, NTX/APAP 5 mg/325 mg, NTX 5 mg): 1 | AEs present ([1]; 6 h, NTX/APAP […]325 mg, NTX 1.5 mg): 0 | AEs present ([1]; 6 h, combined doses): 2 (13) | AEs present ([1]; 12 h, NTX/APAP 2.25 mg/325 mg, NTX 2.25 mg): 0 (0) | AEs present ([1]; 12 h, NTX/APAP 3.25 mg/325 mg, NTX 3.25 mg): 1 (33) | AEs present ([1]; 12 h, NTX/APAP 5 mg/325 mg, NTX 5 mg): 1 | AEs present ([1]; 12 h, NTX/APAP […]325 mg, NTX 1.5 mg): 0 | AEs present ([1]; 12 h, combined doses): 2 (13) | AEs present ([1]; 24 h, NTX/APAP 2.25 mg/325 mg, NTX 2.25 mg): 0 | AEs present ([1]; 24 h, NTX/APAP 3.25 mg/325 mg, NTX 3.25 mg): 1 (33) | AEs present ([1]; 24 h, NTX/APAP 5 mg/325 mg, NTX 5 mg): 1 | AEs present ([1]; 24 h, NTX/APAP […]325 mg, NTX 1.5 mg): 0 | AEs present ([1]; 24 h, combined doses): 2 (13) | AEs present [1, 2]: 0 (0) | AEs present ([1]; 48 h, NTX/APAP 3.25 mg/325 mg, NTX 3.25 mg): 1 (33) | AEs present [1, 3]: 0 | AEs present ([1]; 48 h, NTX/APAP […]325 mg, NTX 1.5 mg): 0 | AEs present ([1]; 48 h, combined doses): 1
